{"source": "patent US20240317780A1", "about": "“RADIOPHARMACEUTICAL SOMATOSTATIN RECEPTOR LIGANDS AND PRECURSORS THEREOF” (Technische Universität München, priority 2021, published 2024)", "key": {"[1]": {"experiment": "Octanol-water distribution coefficient (logD pH 7.4) of the labeled tracer", "format": "physicochemical", "details": "n-octanol/PBS pH 7.4, room temperature", "summary_of_the_method": "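About 1 MBq tracer partitioned in 1:1 PBS pH 7.4/n-octanol, mixed 3 min at room temperature, centrifuged 15000 g for 5 min. Both layers counted by gamma counter; at least six repeats.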"}, "SST2": {"target": "T1, SST2 (Homo sapiens, UniProt P30874)", "T1 construct": "expressed in transfected cells; host or cells: CHO (Chinese hamster ovary) cells", "T1 sequence (P30874 whole entry, species assumed)": "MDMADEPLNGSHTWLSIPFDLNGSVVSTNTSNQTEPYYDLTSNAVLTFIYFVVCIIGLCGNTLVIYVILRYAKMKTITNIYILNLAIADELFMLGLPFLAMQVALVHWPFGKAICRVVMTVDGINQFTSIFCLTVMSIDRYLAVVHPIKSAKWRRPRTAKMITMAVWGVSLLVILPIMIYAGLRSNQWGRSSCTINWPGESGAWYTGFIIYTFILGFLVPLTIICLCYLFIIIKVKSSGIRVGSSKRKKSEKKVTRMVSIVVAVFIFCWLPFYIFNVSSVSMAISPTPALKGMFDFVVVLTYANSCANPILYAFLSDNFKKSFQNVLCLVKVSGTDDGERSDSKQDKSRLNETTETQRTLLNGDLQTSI", "experiment": "Determination of IC50: competitive binding against [125I]TOC on SST2-transfected CHO cells", "details": "[125I]TOC reference radioligand, 60 min room temperature"}, "HSA": {"target": "HSA (Homo sapiens, UniProt P02768)", "sequence (P02768 25-609)": "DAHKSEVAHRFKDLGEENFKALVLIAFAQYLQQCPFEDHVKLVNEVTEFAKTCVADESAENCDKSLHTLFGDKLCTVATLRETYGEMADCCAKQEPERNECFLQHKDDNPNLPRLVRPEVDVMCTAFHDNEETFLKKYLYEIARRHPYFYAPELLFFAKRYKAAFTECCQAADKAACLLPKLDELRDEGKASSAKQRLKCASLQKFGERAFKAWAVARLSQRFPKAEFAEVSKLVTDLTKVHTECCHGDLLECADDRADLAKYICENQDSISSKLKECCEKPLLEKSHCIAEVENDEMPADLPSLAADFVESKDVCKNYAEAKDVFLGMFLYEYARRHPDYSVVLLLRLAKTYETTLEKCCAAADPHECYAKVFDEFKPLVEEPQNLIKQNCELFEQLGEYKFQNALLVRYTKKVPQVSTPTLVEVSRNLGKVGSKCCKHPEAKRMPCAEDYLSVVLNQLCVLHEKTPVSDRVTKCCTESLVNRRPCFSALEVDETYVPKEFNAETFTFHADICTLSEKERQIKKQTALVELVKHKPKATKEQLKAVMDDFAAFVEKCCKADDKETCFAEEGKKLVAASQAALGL", "experiment": "HSA binding by RIAC method (gel filtration, apparent molecular weight)", "format": "in vitro ADME", "details": "HSA binding as apparent molecular weight, 700 μM HSA in PBS mobile phase"}, "[2]": {"experiment": "Biodistribution of 18F-labeled SST2 ligands in AR42J tumor-bearing mice", "format": "in vivo", "details": "female, CD1 nu/nu, mouse, iv, total radioactivity, 1 h post injection, tail vein", "description": "All animal experiments were conducted in accordance with general animal welfare regulations in Germany and the institutional guidelines for the care and use of animals. To establish tumor xenografts, AR42J cells (5×10^6 cells/100 μL) were suspended in Dulbecco modified Eagle medium/Nutrition Mixture F-12 with Glutamax-1 (1:1) and inoculated subcutaneously onto the right shoulder of 8 weeks old, female CD1 nu/nu mice (Charles River, Sulzfeld, Germany). Mice were used for experiments when tumors had grown to a diameter of 5-9 mm (7-15 days after inoculation).\nApproximately 0.5-2.0 MBq (0.05-0.25 nmol) of the ^18F-labeled SST2-ligands were injected into the tail vein of AR42J tumor-bearing female CD1 nu/nu mice and sacrificed after 1 h post injection (n=3-5). Selected organs were removed, weighted and measured in a γ-counter.\nThe Tables 4, 5, and 6 summarize the results of the in vivo mouse experiments. For all biodistribution studies, female CD1 nu/nu mice with AR42J tumor xenografts, were used and sacrificed 1 h post injection."}}, "note": "Where two headings read alike, the source gives them in different places. Where a SMILES comes first, the peptide text is derived from it. Bridges are numbered along the chain shown (N, C = ends). [ ]: non-standard residue; d: D form. The star is where a group is joined. ξ: configuration not given here. Benzoyl(4-SiFtBu2) = CC(C)(C)[Si](F)(c1ccc(C(=O)*)cc1)C(C)(C)C; DO3AM = NC(=O)CN1CCN(CC(N)=O)CCN(CC(=O)*)CCN(CC(N)=O)CC1; ξW = NC(Cc1c[nH]c2ccccc12)C(=O)O; dDap = NC[C@@H](N)C(=O)O; ξF = NC(Cc1ccccc1)C(=O)O; ξD = NC(CC(=O)O)C(=O)O; ξDap = NCC(N)C(=O)O; ξC = NC(CS)C(=O)O"}
{"smiles": "C[C@@H](O)[C@H](NC(=O)C1CSSCC(NC(=O)C(Cc2ccccc2)NC(=O)CNC(=O)C(CC(=O)O)NC(=O)[C@@H](CC(=O)O)NC(=O)C(CNC(=O)CN2CCN(CC(=O)O)CCN(CC(=O)O)CCN(CC(=O)O)CC2)NC(=O)[C@@H](CN)NC(=O)c2ccc([Si](F)(C(C)(C)C)C(C)(C)C)cc2)C(=O)N[C@@H](Cc2ccc(O)cc2)C(=O)NC(Cc2c[nH]c3ccccc23)C(=O)N[C@@H](CCCCN)C(=O)N[C@@H]([C@@H](C)O)C(=O)N1)C(=O)O", "note": "(stereo partly shown) (natGa complex, metal not drawn) [[Ga]39]", "values": [{"measurement": "LogDpH=7.4", "setting": "[1]", "value": "−2.20 ± 0.05"}, {"measurement": "IC50", "setting": "SST2", "value": "14.9 ± 1.22", "unit": "nM"}, {"measurement": "HSA", "setting": "HSA", "value": 24.96, "unit": "kDa"}]}
{"smiles": "C[C@@H](O)[C@H](NC(=O)C1CSSCC(NC(=O)C(Cc2ccccc2)NC(=O)CNC(=O)CNC(=O)[C@@H](CC(=O)O)NC(=O)C(CC(=O)O)NC(=O)[C@@H](CNC(=O)CN2CCN(CC(N)=O)CCN(CC(N)=O)CCN(CC(N)=O)CC2)NC(=O)C(CN)NC(=O)c2ccc([Si](F)(C(C)(C)C)C(C)(C)C)cc2)C(=O)N[C@@H](Cc2ccc(O)cc2)C(=O)NC(Cc2c[nH]c3ccccc23)C(=O)N[C@@H](CCCCN)C(=O)N[C@@H]([C@@H](C)O)C(=O)N1)C(=O)O", "note": "(stereo partly shown) [[Pb]36] ({Benzoyl(4-SiFtBu2)}-[ξDap][dDap](DO3AM)[ξD][dD]GG[ξF][ξC]Y[ξW]KT[ξC]T-OH; disulfide 8-13)", "values": [{"measurement": "LogDpH=7.4", "setting": "[1]", "value": "−1.82 ± 0.05"}, {"measurement": "IC50", "setting": "SST2", "value": "6.57 ± 0.32", "unit": "nM"}, {"measurement": "HSA", "setting": "HSA", "value": 20.22, "unit": "kDa"}, {"measurement": "tissue uptake at 1 h", "setting": "[2]; AR42J tumor, AR42J tumor, read-out: Tumor % ID/g ± SD", "value": "22.3 ± 3.85", "unit": "%ID/g"}, {"measurement": "tissue uptake at 1 h", "setting": "[2]; adrenal glands, read-out: Adrenal glands % ID/g ± SD", "value": "2 ± 0.27", "unit": "%ID/g"}, {"measurement": "tissue uptake at 1 h", "setting": "[2]; blood, read-out: Blood % ID/g ± SD", "value": "1.3 ± 0.21", "unit": "%ID/g"}, {"measurement": "tissue uptake at 1 h", "setting": "[2]; bone, read-out: Bone % ID/g ± SD", "value": "3.38 ± 0.7", "unit": "%ID/g"}, {"measurement": "tissue uptake at 1 h", "setting": "[2]; heart, read-out: Heart % ID/g ± SD", "value": "0.71 ± 0.09", "unit": "%ID/g"}, {"measurement": "tissue uptake at 1 h", "setting": "[2]; intestine, read-out: Intestine % ID/g ± SD", "value": "1.31 ± 0.21", "unit": "%ID/g"}, {"measurement": "tissue uptake at 1 h", "setting": "[2]; kidneys, read-out: Kidneys % ID/g ± SD", "value": "43 ± 6.22", "unit": "%ID/g"}, {"measurement": "tissue uptake at 1 h", "setting": "[2]; liver, read-out: Liver % ID/g ± SD", "value": "8.47 ± 1.23", "unit": "%ID/g"}, {"measurement": "tissue uptake at 1 h", "setting": "[2]; lung, read-out: Lung % ID/g ± SD", "value": "2.42 ± 0.5", "unit": "%ID/g"}, {"measurement": "tissue uptake at 1 h", "setting": "[2]; muscle, read-out: Muscle % ID/g ± SD", "value": "0.47 ± 0.08", "unit": "%ID/g"}, {"measurement": "tissue uptake at 1 h", "setting": "[2]; pancreas, read-out: Pancreas % ID/g ± SD", "value": "9.09 ± 1.79", "unit": "%ID/g"}, {"measurement": "tissue uptake at 1 h", "setting": "[2]; spleen, read-out: Spleen % ID/g ± SD", "value": "0.84 ± 0.17", "unit": "%ID/g"}, {"measurement": "tissue uptake at 1 h", "setting": "[2]; stomach, read-out: Stomach % ID/g ± SD", "value": "4.32 ± 0.81", "unit": "%ID/g"}]}
